The text below walks through data of patent publication US20130216552A1, “CRTH2 MODULATORS” (Ironwood Pharmaceuticals, Inc., priority 2010, published 2013).

Where only a bound is given, the exact number is not on record here.

Assay [1] deals with T1, CRTH2 (Homo sapiens, UniProt Q9Y5Y4).
T1 construct: polymorphonuclear cells (0.5 ml; 10^6/ml cells) in PBS containing 0.9 mM CaCl2 and 0.5 mM MgCl2; endogenous in cells; host or cells: polymorphonuclear cells (eosinophils gated by flow cytometry)
T1 sequence (Q9Y5Y4 1-395): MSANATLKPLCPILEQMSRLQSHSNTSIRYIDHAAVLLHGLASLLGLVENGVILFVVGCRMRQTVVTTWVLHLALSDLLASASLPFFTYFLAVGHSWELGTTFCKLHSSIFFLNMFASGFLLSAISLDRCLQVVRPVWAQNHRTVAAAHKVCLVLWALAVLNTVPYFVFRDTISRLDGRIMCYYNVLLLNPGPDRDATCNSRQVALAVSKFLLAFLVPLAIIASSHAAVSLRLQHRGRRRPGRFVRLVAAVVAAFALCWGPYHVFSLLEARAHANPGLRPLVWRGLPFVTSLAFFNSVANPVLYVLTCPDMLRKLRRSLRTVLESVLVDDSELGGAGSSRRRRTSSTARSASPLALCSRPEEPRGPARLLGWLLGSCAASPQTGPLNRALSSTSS
The experiment in a line: DPBS CD11b Antagonist Assay. The following applies: polymorphonuclear cells in PBS with CaCl2/MgCl2; CD11b expression in eosinophils; agonist 15R-Methyl-PGD2 (10 nM). Format: cell-based. The method, then:
DPBS CD11b Antagonist Assay
The potential CRTH2 antagonist activity of certain compounds was tested using a CD11b expression assay using essentially the method described by Monneret et al. (J Pharmacol Exp Ther 304:349-55, 2003). Briefly, polymorphonuclear cells (0.5 ml; 10^6/ml cells) in PBS containing 0.9 mM CaCl2 and 0.5 mM MgCl2) were preincubated with various concentrations of test compounds at room temperature for 10 minutes before they were challenged with the agonist 15R-Methyl-PGD2 (10 nM). The incubations were terminated by the addition of ice-cold FACSFlow (BD Biosciences; Cat#342003) and centrifugation (400 g for 5 minutes at 4° C.). The cells were then incubated for 30 minutes at 4° C. with a mixture of PE-labeled mouse anti-human VLA-4 (5 μl; BD Biosciences) and FITC-labeled mouse anti-human CD11b (10 μl; Beckman Coulter). The cells were then incubated with Optilyse C (0.25 ml; Beckman Coulter) for 15 minutes, centrifuged, and then fixed in PBS (0.4 ml; calcium and magnesium free) containing 1% formaldehyde. The distribution of fluorescence intensities among 60,000 cells was measured by flow cytometry. Eosinophils were gated out on the basis of their granularity (high side scatter) and labeling with VLA-4 (PE fluorescence). CD11b was then measured in the eosinophil region on the basis of fluorescence due to FITC. All data were corrected for the value obtained for the corresponding isotope control antibody.

Assay [2] concerns the target T1, CRTH2. The experiment in a line: Human Whole Blood CD11b Antagonist Assay. Format: cell-based. The settings on record: CD11b expression in eosinophils, agonist 15R-Methyl-PGD2 (10 nM). The method, then:
Human Whole Blood CD11b Antagonist Assay (Modified from Nicholson, et al. Pulmonary Pharmacology and Therapeutics: 20 (2007); 52-59)
The potential CRTH2 antagonist activity of certain compounds was tested in human whole blood using an assay that tests the ability of the compounds to block the CD11b expression in eosinophils by 15-R-methyl-PGD2. A CRTH2 antagonist should block CD11b expression by subsequently added 15-Methyl-PGD2. Human whole blood ([…]) was incubated at 37° C. for 10 minutes in the presence of various concentrations of test compounds before being challenged with the agonist 15R-Methyl-PGD2 (10 nM). Reactions were terminated by the addition of ice-cold PBS+0.5% BSA+2 mM EDTA (1 mL) and centrifugation (300×g for 5 minutes at 4° C.) Cells were then incubated at 4° C. for 10 min in the presence of human IgG. Cells were then incubated for 30-45 min with a mixture of PE-Cy5-labeled mouse anti-human CD16 (10 ul; BD Biosciences) and FITC-labeled mouse anti-human CD11b (10 μL; Beckman Coulter.) After rinsing (1 mL ice-cold PBS+0.5% BSA+2 mM EDTA), red blood cells were lysed by the addition of 1 mL ice-cold H2O to the cell pellet for 30 sec-1 min immediately followed by the addition of 3.5% NaCl (300 μL.) Cells were then rinsed (2×−1 ml ice cold PBS+0.5% BSA+2 m MEDTA) and fixed in PBS containing 1% formaldehyde. The distribution of fluorescence intensities was measured by flow cytometry. Eosinophils were gated out on the basis of their granularity (high side scatter) and absence of CD-16. CD11b was then measured on this eosinophil population on the basis of fluorescence due to FITC.

In general, IC50 refers to the point on the concentration scale where inhibition reaches its midpoint.

At CRTH2 [1], `Cc1c(Cc2ccccc2S(=O)(=O)N2CCCC2)c2scnc2n1CC(=O)O` [Compound I-2, 2-(5-Methyl-6-(2-(pyrrolidin-1-ylsulfonyl)benzyl)-4H-pyrrolo[2,3-d]thiazol-4-yl)acetic acid] yielded an IC50 of 100 to 500 nM. Consider `Cc1c(Cc2ccccc2S(=O)(=O)c2ccccc2)c2ccsc2n1CC(=O)O` [Compound I-3, 2-(5-Methyl-4-(2-(phenylsulfonyl)benzyl)-6H-thieno[2,3-b]pyrrol-6-yl)acetic acid], for which the IC50 is less than 1 nM at CRTH2 [1] and 5 to 20 nM at CRTH2 [2]. In the case of `Cc1c(Cc2ccccc2S(=O)(=O)N2CCCC2)c2sccc2n1CC(=O)O` [Compound I-4, 2-(5-Methyl-6-(2-(pyrrolidin-1-ylsulfonyl)benzyl)-4H-thieno[3,2-b]pyrrol-4-yl)acetic acid], the IC50 was in the range of 1 to 5 nM on CRTH2 [1] and 20 to 100 nM on CRTH2 [2].

In the case of `Cc1c(Cc2ccccc2S(=O)(=O)N2CCCC2)c2ccsc2n1CC(=O)O` [Compound I-1, 2-(5-Methyl-4-(2-(pyrrolidin-1-ylsulfonyl)benzyl)-6H-thieno[2,3-b]pyrrol-6-yl)acetic acid], the results for the IC50 at CRTH2 [1] and on CRTH2 [2] were less than 1 nM and 20 to 100 nM, respectively. Turning to `Cc1c(Cc2ccccc2S(=O)(=O)N2CCOCC2)c2scnc2n1CC(=O)O` [Compound I-5, 2-(5-Methyl-6-(2-(morpholinosulfonyl)benzyl)-4H-pyrrolo[2,3-d]thiazol-4-yl)acetic acid], the IC50 on CRTH2 [1] and on CRTH2 [2] was 3000 to 5000 nM in each case. With `Cc1c(Cc2ccccc2S(=O)(=O)N2CCOCC2)c2ccsc2n1CC(=O)O` [Compound I-6, 2-(5-Methyl-4-(2-(morpholinosulfonyl)benzyl)-6H-thieno[2,3-b]pyrrol-6-yl)acetic acid], the results for the IC50 on CRTH2 [1] and on CRTH2 [2] were less than 1 nM and 5 to 20 nM, respectively.
